In ChEMBL document CHEMBL6178021, “Optimization of Tambjamines Active against Multiple Stages of Malaria Parasites” (J Med Chem, 2025):
Converted amounts (≈) assume the structure as drawn.

Assays:
[1] = system: Plasmodium falciparum; assay: microbe, parasite or virus in culture; conditions: Dd2, 72 h
Description: Antiplasmodial activity against asexual blood-stage Plasmodium falciparum Dd2 using 2% haematocrit and 0.2% parasitemia assessed as reduction in fluorescence measured after 72 hrs by Malaria SYBR Green I-based Fluorescence (MSF) assay

[2] = system: MDR1 (human); assay: Apparent permeability across apical to basolateral side in MDCK transfected with human MDR1 cells incubated for 1 hr by LC-MS analysis; conditions: dog, MDCK-MDR1
[3] = system: Plasmodium yoelii; assay: Antimalarial activity against erythrocytic Plasmodium yoelii MRA-428 infected in CF1 mouse assessed as reduction in parasitemia at 10 mg/kg, po once daily for 4 days measured on day 5; assay type: functional; set-up: scale not given: the % may be the effect or the level left; conditions: time 4 day
[4] = in vitro; conditions: human, liver microsomes
[5] = Solubility of the compound in potassium phosphate buffer at pH 7.4 by UV-vis spectroscopy; conditions: buffer
[6] = system: Plasmodium falciparum; assay: Antiplasmodial activity against asexual blood-stage Plasmodium falciparum Tm90-C2B using 2% haematocrit and 0.2% parasitemia assessed as reduction in fluorescence measured after 72 hrs by Malaria SYBR Green I-based Fluorescence (MSF) assay; assay type: functional, organism-based
[7] = system: Plasmodium yoelii; assay: Antimalarial activity against erythrocytic Plasmodium yoelii MRA-428 infected in CF1 mouse assessed as cured mouse at 25 mg/kg, po once daily for 4 days measured on day 28 day; assay type: functional, organism-based; conditions: time 4.0 day
[8] = system: Plasmodium yoelii; assay: Antimalarial activity against erythrocytic Plasmodium yoelii MRA-428 infected in CF1 mouse assessed as cured mouse at 50 mg/kg, po once daily for 4 days measured on day 28 day; assay type: functional, organism-based; conditions: time 4.0 day
[9] = Metabolic stability in mouse liver microsomes assessed as half life measured up to 60 mins by LC/MS analysis; assay type: ADME, Microsome
[10] = Metabolic stability in human liver microsomes assessed as half life measured up to 60 mins by LC/MS analysis; assay type: ADME, Microsome
[11] = system: MDR1 (human); assay: Apparent permeability across basolateral to apical side in MDCK transfected with human MDR1 cells incubated for 1 hr by LC-MS analysis; conditions: dog, MDCK-MDR1
[12] = system: Plasmodium falciparum; assay: microbe, parasite or virus in culture; conditions: D6, 72 h
Description: Antiplasmodial activity against asexual blood-stage Plasmodium falciparum D6 using 2% haematocrit and 0.2% parasitemia assessed as reduction in fluorescence measured after 72 hrs by Malaria SYBR Green I-based Fluorescence (MSF) assay

[13] = system: Plasmodium yoelii; assay: Antimalarial activity against erythrocytic Plasmodium yoelii MRA-428 infected in CF1 mouse assessed as reduction in parasitemia at 25 mg/kg, po once daily for 4 days measured on day 5; assay type: functional; set-up: scale not given: the % may be the effect or the level left; conditions: time 4 day
[14] = in vitro; conditions: mouse, liver microsomes
[15] = system: Plasmodium yoelii; assay: Antimalarial activity against erythrocytic Plasmodium yoelii MRA-428 infected in CF1 mouse assessed as reduction in parasitemia at 50 mg/kg, po once daily for 4 days measured on day 5; assay type: functional; set-up: scale not given: the % may be the effect or the level left; conditions: time 4 day
[16] = system: HepG2; assay: Cytotoxicity against human HepG2 cells assessed as cell viability measured after 48 hrs by MTT assay; assay type: toxicity, cell-based; conditions: hepg2

| SMILES | IC50 [1] | Papp A→B at 1 h [2] | Activity [3] | microsomal CLint at 1 h [4] | solubility [5] | IC50 [6] | Activity [7] | Activity [8] | half-life [9] | half-life [10] | Papp B→A at 1 h [11] | IC50 [12] | Activity [13] | microsomal CLint at 1 h [14] | Activity [15] | IC50 [16] |
| --- | --- | --- | --- | --- | --- | --- | --- | --- | --- | --- | --- | --- | --- | --- | --- | --- |
| CCC1=C(C)/C(=C/NC2CCCCC2)N=C1c1ccc(C)[nH]1 | 15.7 nM | 0.33 ×10⁻⁶ cm/s | 80.3% | 6.07 µL/min/mg | 72.5 µM (≈ 21.6 µg/mL) | 32.3 nM | Not active; None Of The Mouse Cured Out Of Four Tested | Not active; None Of The Mouse Cured Out Of Four Tested | 31.7 min | > 60 min | 0.099 ×10⁻⁶ cm/s | 27.4 nM | 100% | 43.7 µL/min/mg | 100% | 8090 nM |
| CC1=C(C)/C(=C/NC2CCCCC2)N=C1c1ccc(C)[nH]1 | 4.17 nM | 0.053 ×10⁻⁶ cm/s | 0% | 13.6 µL/min/mg | 168 µM (≈ 47.6 µg/mL) | 4.9 nM | Not active; None Of The Mouse Cured Out Of Four Tested | Not active; None Of The Mouse Cured Out Of Four Tested | 37.2 min | > 60 min | 0.37 ×10⁻⁶ cm/s | 9.92 nM | 100% | 37.3 µL/min/mg | 100% | 6820 nM |
| CCc1ccc(C2=N/C(=C\NC3CCCCCCC3)C(C)=C2C)[nH]1 | 3.97 nM | 0.022 ×10⁻⁶ cm/s |  |  | 57.7 µM (≈ 18.8 µg/mL) | 4.28 nM |  |  | > 60 min | > 60 min |  | 5.05 nM | 97% |  | 100% | 2020 nM |
| CCN(CC)CCCC(C)Nc1ccnc2cc(Cl)ccc12 (stereo not drawn) |  |  |  |  |  |  | Not active; None Of The Mouse Cured Out Of Four Tested | Not active; None Of The Mouse Cured Out Of Four Tested |  |  |  |  |  |  |  |  |
| C(/NC1CCCCC1)=C1/N=C(c2ccc[nH]2)C2=C1CCCC2 | 13.2 nM | 0.27 ×10⁻⁶ cm/s | 88.8% | 51.9 µL/min/mg | 294 µM (≈ 86.9 µg/mL) | 16.6 nM | Not active; None Of The Mouse Cured Out Of Four Tested | Not active; None Of The Mouse Cured Out Of Four Tested | 23.8 min |  | 0.092 ×10⁻⁶ cm/s |  | 100% | 58.2 µL/min/mg | 100% |  |
| CC1=C(C)/C(=C/NC2CCCCCC2)N=C1c1ccc(C)[nH]1 | 3.73 nM | 0.006 ×10⁻⁶ cm/s | 0% | 25.2 µL/min/mg | 72.3 µM (≈ 21.5 µg/mL) | 4.84 nM | Not active; None Of The Mouse Cured Out Of Four Tested | Not active; None Of The Mouse Cured Out Of Four Tested | 36.8 min | 55 min | 0.12 ×10⁻⁶ cm/s | 12.4 nM | 100% | 37.6 µL/min/mg | 100% | 6770 nM |
| CCC1=C(CC)/C(=C/NC2CCCCC2)N=C1c1ccc[nH]1 | 115 nM | 0.22 ×10⁻⁶ cm/s | 94.4% | 45.5 µL/min/mg | 307 µM (≈ 91.3 µg/mL) | 79.9 nM | Not active; None Of The Mouse Cured Out Of Four Tested | Not active; None Of The Mouse Cured Out Of Four Tested | 40.1 min | 30.5 min | 0.18 ×10⁻⁶ cm/s | 72.1 nM | 100% | 34.5 µL/min/mg | 100% | 13000 nM |
| CCC1=C(CC)/C(=C/NC2CCCCCC2)N=C1c1ccc(CC)[nH]1 | 3.21 nM | 0.03 ×10⁻⁶ cm/s | 37.6% | 13.3 µL/min/mg | 30.1 µM (≈ 10.2 µg/mL) | 4.57 nM | Not active; None Of The Mouse Cured Out Of Four Tested | Not active; None Of The Mouse Cured Out Of Four Tested | > 60 min | > 60 min | 0.012 ×10⁻⁶ cm/s | 7.2 nM | 100% | 5.29 µL/min/mg | 100% | 3640 nM |
| CCC1=C(C)/C(=C/NC2CCCCCCC2)N=C1c1ccc(CC)[nH]1 | 9.01 nM | 0.095 ×10⁻⁶ cm/s | 61.9% | 33.4 µL/min/mg | 10 µM (≈ 3.4 µg/mL) | 2.98 nM | Not active; None Of The Mouse Cured Out Of Four Tested | Not active; None Of The Mouse Cured Out Of Four Tested | > 60 min | 41.4 min |  | 7.39 nM | 100% | 17.5 µL/min/mg | 100% | 4280 nM |
| CCc1ccc(C2=N/C(=C\NC3CCCCCC3)C3=C2OCCO3)[nH]1 | 16.7 nM | 0.042 ×10⁻⁶ cm/s | 34.2% | 20.6 µL/min/mg | 52.1 µM (≈ 17.8 µg/mL) | 3.34 nM |  |  | 28.7 min | > 60 min | 0.47 ×10⁻⁶ cm/s | 7.58 nM | 67.4% | 48.2 µL/min/mg |  | 1780 nM |
